From patent US5006533A, “Certain 3-bromo-2,6-dimethoxybenzamides and pharmaceutical use thereof” (Boehringer Ingelheim GmbH, priority 1986, dated 1991)
Structures can show the parent of a compound that is named as a salt.

Legend:
LD50 (mouse) p.o. = conditions: in vivo, po
[1] = test system: apomorphine climbing, mouse; test: apomorphine climbing test on the mouse; assay type: in vivo; conditions: after 1 h
[2] = test system: rhesus monkeys sensitised with haloperidol; test: dyskinesia in rhesus monkeys sensitised with haloperidol; assay type: in vivo, rhesus monkey; conditions: for Dyskinesia threshold dose p.o.: rhesus monkeys sensitised with haloperidol; for Dyskinesia index I:II: ratio of climbing test ED50 (I) to dyskinesia threshold dose (II)
From the text: The dyskinetic effects are among the most disturbing side effects of neuroleptic drugs. These include Parkinsonian manifestations such as tremor, rigidity and akinesia but also dyskinesia in the mouth-tongue-pharynx region.
The investigation of such symptoms in an animal model is possible using rhesus monkeys sensitised with haloperidol. After being given neuroleptic drugs, which have extrapyramidal motor effects in humans, these animals show typical dyskinesia in the mouth and tongue region (according to J. Liebmann and R. Neale, Psychopharmacology 68, 25-29 (1980) modified).

SMILES: COc1ccc(Br)c(OC)c1C(=O)NC1CC2CC(O)C(C1)N2Cc1ccc(Cl)cc1 (racemic) [X = Cl, N-[8-(4-Chlorobenzyl)-6-hydroxy-3-nortropanyl]-2,6-dimethoxy-3-bromobenzamide-hydrochloride]
- LD50 (LD50 (mouse) p.o.): > 1000 mg/kg
- ED50 [1]: 0.85 mg/kg
- Dyskinesia threshold dose p.o. [2]: 30 mg/kg
- Dyskinesia index I:II [2]: 0.028

SMILES: COc1ccc(Br)c(OC)c1C(=O)NC1CC2CC(O)C(C1)N2Cc1ccc(F)cc1 (stereo not drawn) [X = F, N-[8-(4-Fluorobenzyl)-6-hydroxy-3-nortropanyl]-2,6-dimethoxy-3-bromobenzamide-hydrochloride]
- ED50 [1]: 0.63 mg/kg
- Dyskinesia threshold dose p.o. [2]: 8 mg/kg
- Dyskinesia index I:II [2]: 0.078

SMILES: COc1ccc(Br)c(OC)c1C(=O)NC1CC2CCC(C1)N2Cc1ccccc1 (stereo not drawn) [A, N-(8-benzyl-3-nortropanyl)-2,6-dimethoxy-3-bromobenzamide, reference compound]
- LD50 (LD50 (mouse) p.o.): ~300 mg/kg
- ED50 [1]: 1.8 mg/kg
- Dyskinesia threshold dose p.o. [2]: 10 mg/kg
- Dyskinesia index I:II [2]: 0.18

SMILES: COc1ccc(Br)c(OC)c1C(=O)NC1CC2CC(O)C(C1)N2Cc1ccccc1 (stereo not drawn) [X = H, N-(8-Benzyl-6-hydroxy-3-nortropanyl)-2,6-dimethoxy-3-bromobenzamide fumarate]
- LD50 (LD50 (mouse) p.o.): ~300 mg/kg
- ED50 [1]: 1.2 mg/kg
- Dyskinesia threshold dose p.o. [2]: > 15 mg/kg
- Dyskinesia index I:II [2]: < 0.08
